We go through 15 compounds from PubChem BioAssay (NCI).

Test systems include SF-539 CNS; SNB-75 CNS; NCI-H460 lung; SNB-19 CNS; EKVX NSCLC; K-562 leukemia; SW-620 colon; CCRF-CEM leukemia; MCF7 breast; CAKI-1 renal; HS 578T breast.
Common to all, as to assay: inhibition of tumour cell growth, NCI panel, 48 h

Structures are written as SMILES.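 Interpolation was linear, between the two tested concentrations surrounding the appropriate level; five concentrations were tested over 48 hours in 96-well plates. The concentration for 50% growth inhibition is given as GI50. TGI marks complete inhibition of growth.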 Bounds are passed on as bounds.

With `COc1cc(-c2cccs2)sc1-c1cccs1`, the TGI in the test with SF-539 CNS was above 100 µM; in the test on SNB-75 CNS it was 66.5 µM; in the test on NCI-H460 lung, above 100 µM; in the test with SNB-19 CNS, above 100 µM; in the test with EKVX NSCLC, above 100 µM; in the test with K-562 leukemia it was 51.5 µM. The TGI in the test on SW-620 colon and in the test with CCRF-CEM leukemia was above 100 µM each time.

Consider `C=C1c2nc3ccccc3n2C=C(c2ccc(OC)cc2)N1c1ccc(OC)cc1`, for which the TGI with SF-539 CNS was 64.8 µM; with SNB-75 CNS, 30.6 µM; in the test on NCI-H460 lung it was above 100 µM; in the test with SNB-19 CNS, 33.9 µM; in the test with MCF7 breast, above 100 µM; with EKVX NSCLC, above 100 µM. The TGI with K-562 leukemia was above 100 µM; in the test on SW-620 colon, above 100 µM; with CCRF-CEM leukemia, above 100 µM; with CAKI-1 renal, 19.3 µM.

Turning to `O=[N+]([O-])c1ccc2nc(Nc3ccccc3)c(Nc3ccccc3)nc2c1`, the TGI with SF-539 CNS worked out at 2.98 µM; in the test with SNB-75 CNS, 5.25 µM; in the test with NCI-H460 lung, 1.61 µM; in the test with HS 578T breast, 8.75 µM; in the test with SNB-19 CNS it was 7.7 µM; in the test with EKVX NSCLC, 6.22 µM. Further, the TGI was above 100 µM in the test with K-562 leukemia, 3.46 µM in the test with SW-620 colon, above 100 µM with CCRF-CEM leukemia and 11.2 µM with CAKI-1 renal.

On to `COC(=O)c1ccc(Cc2cc(Cc3ccc(C(=O)OC)cc3)cc(Cc3ccc(C(=O)OC)cc3)c2)cc1`, for which the TGI in the test with SF-539 CNS, in the test with SNB-75 CNS, with NCI-H460 lung, in the test with HS 578T breast, in the test on SNB-19 CNS and in the test on MCF7 breast was above 25 µM each time. In addition, the TGI in the test with EKVX NSCLC, in the test on K-562 leukemia and in the test with SW-620 colon was above 25 µM in each case.

On to `CSC(=O)c1sc(SC)[n+](-c2ccccc2)c1O`, for which the TGI with SF-539 CNS was 29.5 µM; with SNB-75 CNS, 27.2 µM; in the test with NCI-H460 lung, 86.3 µM; in the test on HS 578T breast, above 100 µM; with SNB-19 CNS, 35.7 µM; in the test on MCF7 breast, 52.8 µM. In addition, the figures for the TGI in the test on K-562 leukemia, with SW-620 colon and with CCRF-CEM leukemia were above 100 µM, 42.5 µM and 38.1 µM, respectively.

Consider `O=C(CC1Sc2ccccc2NC1=O)Nc1ccccc1[N+](=O)[O-]` (configuration not stated), for which the TGI with SF-539 CNS, in the test on SNB-75 CNS, in the test on NCI-H460 lung, in the test with SNB-19 CNS, in the test with EKVX NSCLC and in the test with K-562 leukemia was above 100 µM throughout. The TGI in the test with SW-620 colon, in the test on CCRF-CEM leukemia and in the test on CAKI-1 renal was above 100 µM each time.

On to `Cc1ccc(S(=O)(=O)N2CC2CCCCC=O)cc1` (configuration not stated), for which the TGI in the test on SNB-75 CNS, in the test with HS 578T breast, in the test on SNB-19 CNS, in the test with EKVX NSCLC, with K-562 leukemia and in the test on SW-620 colon was above 100 µM in each case. In addition, the TGI in the test with CCRF-CEM leukemia was 55.1 µM; with CAKI-1 renal it was above 100 µM.

Regarding `COc1cc(OCCN(C)C)c2[nH]c(C(=O)N3CC(CCl)c4ccc(N)cc43)cc2c1` (configuration not stated), the TGI was 0.565 µM in the test with SNB-75 CNS; 2.59 µM with SNB-19 CNS; 0.133 µM in the test on MCF7 breast; 1.37 µM with EKVX NSCLC; above 100 µM in the test with K-562 leukemia; 0.0684 µM in the test on CCRF-CEM leukemia.

With `O=c1cc(-c2ccc3c(c2)OCO3)[nH]c2cc3c(cc12)OCO3`, the TGI was 69.1 µM in the test on SF-539 CNS; 13.7 µM in the test on SNB-75 CNS; above 100 µM with NCI-H460 lung; above 100 µM with SNB-19 CNS; above 100 µM in the test with EKVX NSCLC; above 100 µM with K-562 leukemia. The TGI in the test with SW-620 colon, with CCRF-CEM leukemia and in the test with CAKI-1 renal was above 100 µM throughout.

`O=C(Nc1c(O)[nH]c(=S)[nH]c1=O)c1ccccc1`: the TGI in the test on SF-539 CNS, in the test on SNB-75 CNS, in the test on NCI-H460 lung, in the test with SNB-19 CNS, with K-562 leukemia and with SW-620 colon was above 100 µM each time. In addition, the TGI in the test with CCRF-CEM leukemia and with CAKI-1 renal was above 100 µM in each case.

With `CCOC(=O)C12OC(OCC)(CC1(OCC)OCC)C1(CC1)C2=O` (configuration not stated), the TGI in the test with SF-539 CNS, in the test on SNB-75 CNS, in the test with NCI-H460 lung, in the test with SNB-19 CNS, in the test with MCF7 breast and in the test with EKVX NSCLC was above 100 µM each time. The TGI in the test on K-562 leukemia, with SW-620 colon, in the test on CCRF-CEM leukemia and with CAKI-1 renal was above 100 µM in each case.

For `COc1cc2c(/C=C3/C(=O)Nc4cccc(Cl)c43)c(Cl)[nH]c2cc1C`, the TGI with SF-539 CNS amounted to 3.38 µM; in the test on SNB-75 CNS, 4.03 µM; in the test on NCI-H460 lung, 3.78 µM; in the test on HS 578T breast, 5.58 µM; with SNB-19 CNS, 7.13 µM; in the test with MCF7 breast it was 8.35 µM. Further, the TGI in the test with K-562 leukemia was determined as 3.64 µM; in the test with SW-620 colon, 5.25 µM; with CCRF-CEM leukemia it was 3.3 µM; with CAKI-1 renal it was 7.3 µM.

For the compound `COc1cc(C2C(Cl)C(=O)N2n2cnc3ccccc3c2=O)ccc1O` (configuration not stated), the TGI in the test with SNB-75 CNS, with NCI-H460 lung, with SNB-19 CNS, in the test on EKVX NSCLC, in the test with SW-620 colon and in the test on CCRF-CEM leukemia was above 100 µM throughout. In addition, in the test with CAKI-1 renal, the TGI was above 100 µM.

Regarding `COc1cc(/C=C2\CN(S(=O)(=O)c3ccc(C)cc3)C/C(=C\c3cc(CN4CCCC4)c(O)c(OC)c3)C2=O)cc(CN2CCCC2)c1O`, the GI50 in the test on SF-539 CNS is 1.6 µM; with SNB-75 CNS, 1.1 µM; in the test with HS 578T breast, 2.73 µM; with MCF7 breast it was 0.967 µM; in the test on CCRF-CEM leukemia, 0.0535 µM; with CAKI-1 renal, 1.76 µM. Besides, the TGI came to 3.1 µM in the test on SF-539 CNS; 2.56 µM in the test on SNB-75 CNS; 7.72 µM in the test on HS 578T breast; 3.93 µM with MCF7 breast; 3.74 µM in the test with CCRF-CEM leukemia; 3.28 µM with CAKI-1 renal.

`CO[C@](C(=O)OC[C@H]1[C@@H](COC(C)=O)[C@@H]2O[C@H]1c1cc3c(cc12)OCO3)(c1ccccc1)C(F)(F)F`: the TGI in the test on SNB-75 CNS is 71.5 µM; in the test on NCI-H460 lung, 49.6 µM; in the test on SNB-19 CNS, above 100 µM; in the test on EKVX NSCLC, 98.8 µM; with SW-620 colon, above 100 µM; in the test with CCRF-CEM leukemia, above 100 µM. In the test on CAKI-1 renal, this compound had a TGI above 100 µM.
